# Measurements taken from publication PMC6380545, “Myoinhibitory peptide signaling modulates aversive gustatory learning in Caenorhabditis elegans” (PLoS Genetics, 2019).
# “And” between values parts separate entries of the source, which are not always exact repeats. Identical values can stand only once. Starred links: 1 amine or outer side, 2 acyl side, 3 side chain; linkers in the order of their positions; H or OH if unused. Positions of bridges follow the written chain, without caps; N, C: chain ends. Non-standard residues stand in square brackets, D forms with d. Residues, ends and D or L forms follow the SMILES beside them. Chains are numbered I, II in the order given. No end group written: not given here. Actinocin(9to1) = Cc1c2oc3c(C)ccc(C(=O)[*:1])c3nc-2c(C(=O)[*:2])c(N)c1=O; NMeV = CN[C@H](C(=O)O)C(C)C; Sar = CNCC(=O)O
# Tests used:
# C. elegans [1] = assay: Salt avoidance learning (taste associative learning, 6 h conditioning with NaCl without food); type: in vivo; settings: wild-type, blocker in conditioning plates, cycloheximide 300 μg/mL, actinomycin D 50 μg/mL, 100 mM NaCl without food
# Source text: We next explored the behavior of sprr-2 mutants in a second established type of gustatory associative learning that depends on food availability and external salt concentration, generally referred to as taste associative learning. […] In contrast, they are averted by NaCl concentrations at which they were starved, a behavior that is called salt avoidance learning (Fig 5A, see Methods). To test taste associative learning of sprr-2 mutants, we fed or starved animals, respectively, for six hours on conditioning plates with 25 mM NaCl (low salt) or 100 mM NaCl (high salt). […] This salt avoidance learning defect could be rescued by reintroducing wild-type copies of sprr-2 under control of its endogenous promoter (Fig 5C). […]
# (A) Overview of taste associative learning assays. […] The CI is calculated from the number of worms that migrated toward the lower and upper parts of the gradient. […]
# Worms were washed off the cultivation plates with chemotaxis buffer (25 mM KH2PO4/K2HPO4 pH 6.6, 1 mM MgSO4, 1 mM CaCl2, 50 mM NaCl) and transferred to unseeded (salt avoidance learning) or seeded NGM conditioning plates with 100 mM NaCl. […] 30 to 150 worms were placed at the origin and allowed to move freely for 45 minutes after which the CI was calculated as N(higher)—N(lower) / N(all)—N(origin) where N(higher) or N(lower) is the number of animals within a 2-cm radius from the centre of the blocks. […]
# C. elegans [2] = assay: Taste associative learning, 6 h conditioning with NaCl in the presence of food; type: in vivo; settings: for CI: food (+): 6 hours conditioning on NGM plates with 100 mM NaCl in the presence of bacterial food, with the drug, gradient chemotaxis assay, each row is one single assay (replicate), Figure S5A; for learning behavior after conditioning with 100 mM NaCl in the presence of food: wild-type, blocker in conditioning plates, cycloheximide 300 μg/mL, actinomycin D 50 μg/mL, n ≥ 8
# Description: (A) Overview of taste associative learning assays. Synchronized young adult C. elegans are conditioned for six hours on NaCl-containing plates with or without bacterial food. Salt chemotaxis behavior of worms is then tested on NaCl concentration gradients. The CI is calculated from the number of worms that migrated toward the lower and upper parts of the gradient. Worms chemotax to the salt concentrations at which they were fed, but avoid salt concentrations at which they were starved. […] (C) Expression of sprr-2 under its promoter sequence [sprr-2p::sprr-2] rescues the salt avoidance learning defect of sprr-2 mutants. (D) Expression of mip-1 under control of its endogenous promoter sequence [mip-1p::mip-1] rescues the salt avoidance learning defect of mip-1 mutants. (E) A mip-1; sprr-2 double mutant has no additive learning defect. (F) Blocking translation (cycloheximide) or transcription (actinomycin D) during conditioning impairs salt avoidance learning in wild-type animals. (G) Salt avoidance learning of mutants for transcription factors and regulators linked to learning and memory. […] For (B-H), boxplots indicate 25th (lower boundary), 50th (line), and 75th (upper boundary) percentiles. Whiskers show minimum and maximum values. Individual CIs, blue dots. Outliers, black dots. Statistical comparisons by one-way ANOVA and Tukey post-hoc test (n ≥ 6). *p<0.05; **p<0.005; ***p<0.001; n.s., not significant.
# Worms were washed off the cultivation plates with chemotaxis buffer (25 mM KH2PO4/K2HPO4 pH 6.6, 1 mM MgSO4, 1 mM CaCl2, 50 mM NaCl) and transferred to unseeded (salt avoidance learning) or seeded NGM conditioning plates with 100 mM NaCl. After 6 hours, animals were washed off and rinsed once with chemotaxis buffer before testing chemotaxis towards NaCl on salt concentration gradients. Salt concentration gradients consisted of a thin layer of 50 mM NaCl 2% agar solution in chemotaxis buffer (background agar, 10 mL was poured into 8.5 cm diameter plates). Additionally, 2% agar in chemotaxis buffer solutions supplemented without 0 mM (lower side) or with 150 mM NaCl (higher side) were prepared by pouring 10 mL agar solution into 35 mm diameter plates. Cylindrical blocks with the diameter of a 15 mL falcon tube were excised from either solution and applied on the background agar 3 cm off centre in opposite directions. Salt concentration gradients were subsequently placed at 20°C for 18 hours before removing the agar chunks prior to use. 30 to 150 worms were placed at the origin and allowed to move freely for 45 minutes after which the CI was calculated as N(higher)—N(lower) / N(all)—N(origin) where N(higher) or N(lower) is the number of animals within a 2-cm radius from the centre of the blocks. Animals within a 1-cm radius from the origin were excluded from the assay. […]
# SPRR-2 = target: T1, SPRR-2 (Caenorhabditis elegans, UniProt Q93704); assay: Ca2+ luminescence (aequorin) GPCR activation assay, CHO cells expressing SPRR-2; type: cell-based, C. elegans; settings: CHO cells expressing SPRR-2, Gα16 and aequorin; 0.1 nM to 100 μM; n ≥ 4; read-out: EC50 values (95% CI) for activation of SPRR-2
# T1 construct: host or cells: CHO-WTA11 cells (CHO stably expressing aequorin and Galpha16), transiently transfected with sprr-2/pcDNA3.1
# T1 sequence (Q93704 1-451): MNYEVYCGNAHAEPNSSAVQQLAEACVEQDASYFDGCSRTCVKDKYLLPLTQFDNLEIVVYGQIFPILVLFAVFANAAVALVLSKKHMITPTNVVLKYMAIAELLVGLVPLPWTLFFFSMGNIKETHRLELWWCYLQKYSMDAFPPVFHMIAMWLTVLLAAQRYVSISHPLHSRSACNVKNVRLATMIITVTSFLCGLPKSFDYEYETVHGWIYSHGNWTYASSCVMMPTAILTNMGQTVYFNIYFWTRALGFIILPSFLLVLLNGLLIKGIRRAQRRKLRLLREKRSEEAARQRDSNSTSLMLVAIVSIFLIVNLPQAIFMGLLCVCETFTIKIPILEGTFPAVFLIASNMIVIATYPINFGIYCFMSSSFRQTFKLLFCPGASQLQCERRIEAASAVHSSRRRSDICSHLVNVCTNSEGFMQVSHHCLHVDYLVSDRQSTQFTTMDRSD
# Source text: Fig 2 MIP-1 neuropeptides activate the MIP receptor ortholog SPRR-2. (A) Ca^2+ luminescence assay for measuring GPCR activation. SPRR-2 is expressed in CHO cells that stably co-express the promiscuous Gα16 protein, which couples the receptor’s activation to the Ca^2+ pathway. Intracellular Ca^2+ levels are monitored by the luminescent Ca^2+ indicator aequorin. (B) Domain structure of the C. elegans NLP-38 peptide precursor, henceforward named MIP-1. Gene models predict that the mip-1 gene encodes two protein isoforms (Wormbase WS261), MIP-1A and MIP-1B, which yield five putative MIP-1 peptides. Predicted proprotein convertase sites are indicated in red. Residues belonging to the W-X5-8-Wamide motif, typical of protostomian MIPs, are indicated in brown. (C) MIP-1 peptides dose-dependently activate SPRR-2. Ca^2+responses of CHO cells expressing SPRR-2 are shown relative (%) to the highest value (100% activation) after normalization to the total Ca^2+ response. […] Error bars show SEM (n ≥ 4).
# The C. elegans ortholog SPRR-2 of the insect MIP receptor is an orphan GPCR, meaning that its ligand(s) is unknown. To identify its ligand(s), we used a calcium (Ca^2+)-based reporter assay for GPCR activation wherein SPRR-2 is expressed in Chinese Hamster Ovary (CHO) cells (Fig 2A). We challenged these receptor-expressing cells with a synthetic library of ~350 C. elegans neuropeptides. […] These peptides (NLP-38-1 to 5) all have a C-terminal glycine residue (G) indicative of post-translational modification into an amide (-NH2) group in the mature peptides. In addition, these peptides display the C-terminal sequence W-X5-8-Wamide (Fig 2B), which is typical for MIP neuropeptides in other protostomian species. Because of its relationship to protostomian MIP neuropeptide precursors, we refer to the NLP-38 precursor from here onwards as "MIP-1".
# The GPCR activation assay was performed as previously described. Briefly, CHO cells stably expressing the luminescent Ca^2+ indicator aequorin and the promiscuous Gα16 protein (CHO-WTA11 cells, PerkinElmer) were transiently transfected with sprr-2/pcDNA3.1, sprr-1/pcDNA3.1, sprr-3/pcDNA3.1, or empty pcDNA3.1 vector. […] After loading, the transfected cells were added at a density of 25,000 cells/well, and luminescence was measured for 30 s at a wavelength of 469 nm. After 30 s, 0.1% triton X-100 (Merck) was added to lyse the cells, resulting in a maximal Ca^2+ response that was measured for 10 s. […]
# All behavioral experiments were performed at least in duplicate on at least two independent days. Total size number is indicated in figure legends by N. Statistical Significance was determined when p < 0.05 as indicated in the figure legends. […]
Compound,avoidance of high salt concentrations experienced during starvation (salt avoidance learning) (C. elegans [1]),CI (C. elegans [2]),learning behavior after conditioning with 100 mM NaCl in the presence of food (C. elegans [2]),EC50 (SPRR-2) [nM]
"Cc1c2oc3c(C)ccc(C(=O)N[C@@H]4C(=O)N[C@H](C(C)C)C(=O)N5CCC[C@H]5C(=O)N(C)CC(=O)N(C)[C@@H](C(C)C)C(=O)O[C@@H]4C)c3nc-2c(C(=O)N[C@@H]2C(=O)N[C@H](C(C)C)C(=O)N3CCC[C@H]3C(=O)N(C)CC(=O)N(C)[C@@H](C(C)C)C(=O)O[C@@H]2C)c(N)c1=O [actinomycin D] (I: T[dV]P[Sar][NMeV] / II: T[dV]P[Sar][NMeV]; ester I:1-I:C, II:1-II:C; linker I:N-II:N via Actinocin(9to1))",significantly weakened,0.5595 and 0.6629 and 0.7488 and 0.5052 and 0.5581 and 0.5185,does not impair,–
C[C@@H]1C[C@@H]([C@H](O)CC2CC(=O)NC(=O)C2)C(=O)[C@@H](C)C1 [cycloheximide],significantly weakened,0.19 and 0.26 and 0.65 and 0.48 and 0.38 and 0.54 and 0.7415 and 0.7427,does not impair,–
ASDDRVLGWNKAHGLW-NH2 [MIP-1-4],–,–,–,8.32
SPAQWQRANGLW-NH2 [MIP-1-3],–,–,–,16.1
TPQNWNKLNSLW-NH2 [MIP-1-2],–,–,–,14.2
VLGWNKAHGLW-NH2 [MIP-1-1],–,–,–,7.5
